Experimental findings from US12486298B2, “Fucosyltransferase specific inhibition using fucose mimetics” (THE FLORIDA INTERNATIONAL UNIVERSITY BOARD OF TRUSTEES, priority 2020, dated 2025) are described below.

The target in experiment [1] is T1, fucosyltransferase IX (FTIX) (Homo sapiens, UniProt Q9Y231).
T1 sequence (Q9Y231 1-359): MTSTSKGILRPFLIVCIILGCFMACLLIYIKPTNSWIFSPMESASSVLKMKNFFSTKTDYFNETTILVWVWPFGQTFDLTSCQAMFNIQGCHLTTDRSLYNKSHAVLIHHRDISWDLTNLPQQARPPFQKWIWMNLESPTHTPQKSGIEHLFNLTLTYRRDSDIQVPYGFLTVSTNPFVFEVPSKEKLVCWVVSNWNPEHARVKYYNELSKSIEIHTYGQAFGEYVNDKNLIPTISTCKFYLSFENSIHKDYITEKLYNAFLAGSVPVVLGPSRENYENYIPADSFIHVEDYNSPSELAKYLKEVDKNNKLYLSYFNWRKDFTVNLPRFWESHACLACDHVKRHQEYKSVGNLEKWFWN
Description: FTIX exofucosylation of RPMI-8402 cells, Le^x by flow cytometry. The experiment is classed as cell-based. The method, then: (§1) A Canto II (BD Biosciences) flow cytometer was utilized for flow cytometry and the data acquired was analyzed using FlowJo Software (Treestar). Cells were stained using antibodies specific to sLe^X (Alexa-Fluor 488 Mouse Anti-Human CD15s (BD Biosciences)), or Le^X (APC anti-human CD15 (SSEA-1) Antibody (BioLegend)).
Cells of the RPMI-8402 cell line and MSC cell line were treated with either 0.3 ug of fucosyltransferase VI (FTVI), 2.7 ug of fucosyltransferase VII (FTVII), 1.0 ug fucosyltransferase IX (FTIX) or buffer-only at 37° C. for 60 minutes. All reactions contained at 1×10^6 cells/30 ul in HBSS with 10 mM Hepes, 0.1% Human Serum Albumin, and 1.0 mM GDP fucose (GDP-Fuc) (Carbosynth) and the appropriate fucosytransferase. Then, mimetic 1 was added to each of the treatment groups in molar equivalents with respect to GDP-Fuc with each of the fucosytransferases. […]
(§2) Mimetic 1 (FIG. 1) was tested as an inhibitor of FT-mediated exofucosylation on these cells and the extent of fucosylation was monitored using antibodies that detect the creation of the relevant fucosylated epitopes, i.e., sLe^x or Le^x. […]

For experiment [2], the target named is T2, fucosyltransferase VI (FTVI) (Homo sapiens, UniProt P51993).
T2 construct: purchased R&D systems
T2 sequence (P51993 35-359 limits assumed): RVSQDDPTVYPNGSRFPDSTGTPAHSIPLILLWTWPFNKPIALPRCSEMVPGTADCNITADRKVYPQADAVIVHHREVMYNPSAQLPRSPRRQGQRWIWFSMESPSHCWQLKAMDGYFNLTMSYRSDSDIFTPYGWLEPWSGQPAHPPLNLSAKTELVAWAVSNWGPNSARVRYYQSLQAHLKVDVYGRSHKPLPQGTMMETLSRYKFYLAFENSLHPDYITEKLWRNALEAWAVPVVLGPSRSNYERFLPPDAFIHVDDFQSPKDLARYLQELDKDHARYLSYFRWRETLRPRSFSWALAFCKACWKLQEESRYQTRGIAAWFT
In words: FTVI exofucosylation of RPMI-8402 cells, sLe^x and Le^x by flow cytometry. The experiment is classed as cell-based. The procedure:
A titration of GDP-Fucose was carried out to determine the maximum mean fluorescent intensity (MFI) of sLe^X and Le^X via flow cytometry for downstream inhibition experiments. Generally, 1×10^6 cells were used in each FTVI exofucosylation reaction and all reactions were carried out in triplicate. Cells were then stained with either Alexa-Fluor 488 Mouse Anti-Human CD15s (BD Biosciences), or APC anti-human CD15 (SSEA-1) Antibody (BioLegend). Cells were then acquired on a Canto II (BD Biosciences) flow cytometer and analylized using Flowjo software (Treestar). FTVI was purchased from R&D systems.
as §1
Cells of the RPMI-8402 cell line and MSC cell line were treated with either 0.3 ug of fucosyltransferase VI (FTVI), 2.7 ug of fucosyltransferase VII (FTVII), 1.0 ug fucosyltransferase IX (FTIX) or buffer-only at 37° C. for 60 minutes. All reactions contained at 1×10^6 cells/30 ul in HBSS with 10 mM Hepes, 0.1% Human Serum Albumin, and 1.0 mM GDP fucose (GDP-Fuc) (Carbosynth) and the appropriate fucosytransferase. Then, mimetic 1 was added to each of the treatment groups in molar equivalents with respect to GDP-Fuc with each of the fucosytransferases. The treatment groups were as follows: 1:1 GDP-Fuc to mimetic 1 (i.e., 1.0 mM GDP-Fuc and 1.0 mM mimetic), 1:2 GDP-Fuc to mimetic 1 (i.e., 1.0 mM GDP-Fuc and 2.0 mM mimetic), or preincubated in presence of FT with a 2.0 mM solution of the mimetic 1 for 45 minutes followed by addition of a 1.0 mM solution of GDP-Fuc for 1 hour. Concentrations of the various FTs were utilized that would maximize the MFI to allow the detection of the efficacy of mimetic 1 to inhibit the various enzymes.
Exofucosylation is a technique whereby a pertinent FT together with GDP-Fuc is placed in a cell suspension to stereoselectively install fucose on pertinent acceptor cell surface glycan(s). For the case of α-1,3-FTs, this approach provides the ability to pinpoint the effect(s) of mimetic addition on creation of fucosylated glycans Le^x and sLe^x, while keeping the rest of the cell's biological functions and its viability intact. Specifically, this study focused on three α-1,3-FTs that can create sLe^x and Le^x determinants: FTVII, FTIX, and FTVI. […]
as §2
For orientation: A flow cytometer gives signals particle by particle.

For experiment [3], the target named is T3, human fucose-binding DC-SIGN lectin (Homo sapiens, UniProt Q9NNX6).
T3 sequence (Q9NNX6 1-404): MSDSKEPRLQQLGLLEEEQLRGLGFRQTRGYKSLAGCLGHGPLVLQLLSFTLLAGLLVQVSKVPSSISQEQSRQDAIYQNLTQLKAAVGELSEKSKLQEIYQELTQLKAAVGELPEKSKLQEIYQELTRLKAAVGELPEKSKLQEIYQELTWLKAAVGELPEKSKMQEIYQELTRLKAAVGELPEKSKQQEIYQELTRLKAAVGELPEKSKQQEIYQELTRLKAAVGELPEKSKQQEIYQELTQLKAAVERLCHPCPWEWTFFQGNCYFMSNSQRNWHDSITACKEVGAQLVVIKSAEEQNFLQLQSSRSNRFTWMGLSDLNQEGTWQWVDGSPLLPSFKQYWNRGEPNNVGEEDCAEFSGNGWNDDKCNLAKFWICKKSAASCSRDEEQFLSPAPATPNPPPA
In words: Recognition by DC-SIGN lectin.

[4] abbreviates: RPMI-8402 cells, 1.0 mM GDP-Fuc with 1.0 mM or 2.0 mM mimetic 1.
The mark [5] stands for this setting: pre-incubation with 2.0 mM mimetic 1 prior to addition of GDP-Fuc.

Take `CC1OC2Oc3ccc(CC(=O)O)cc3SC2C(O)C1O` (stereo not shown) [mimetic 1]: the “inhibition of FTIX-mediated exofucosylation (Le^x creation)” value in experiment [1] (setting [4]) is on record as “did not inhibit FTIX-mediated exofucosylation”. Moreover, the “effect of pre-incubation on FTIX-mediated exofucosylation” value in experiment [1] (setting [5]) is on record as “no effect”. In experiment [2] (setting [4]), the “inhibition of FTVI production of Le^x” value is “clearly inhibited” and the “inhibition of FTVI production of sLe^x” value was “markedly diminished”. In addition, the “inhibition of FTVI-mediated exofucosylation after pre-incubation” value in experiment [2] (setting [5]) was “inhibited more completely”. Also, the “concentration of highest inhibition against FTVI” value in experiment [2] (titration of mimetic 1, 1.0 mM GDP-Fuc, RPMI-8402 cells, bell-shaped curve) is 2.0 mM. In addition, the “recognition by DC-SIGN lectin” value in experiment [3] was “not recognized”.
